The text below walks through data of patent publication US4873331A, “Noradamantyl-carboxylic acid piperazinoalkyl esters” (American Home Products Corporation, priority 1988, dated 1989).

In test [1] the target is T1, 5-HT1A serotonin receptor subtype (Rattus norvegicus, UniProt P19327).
T1 construct: from tissue
T1 sequence (P19327 1-422): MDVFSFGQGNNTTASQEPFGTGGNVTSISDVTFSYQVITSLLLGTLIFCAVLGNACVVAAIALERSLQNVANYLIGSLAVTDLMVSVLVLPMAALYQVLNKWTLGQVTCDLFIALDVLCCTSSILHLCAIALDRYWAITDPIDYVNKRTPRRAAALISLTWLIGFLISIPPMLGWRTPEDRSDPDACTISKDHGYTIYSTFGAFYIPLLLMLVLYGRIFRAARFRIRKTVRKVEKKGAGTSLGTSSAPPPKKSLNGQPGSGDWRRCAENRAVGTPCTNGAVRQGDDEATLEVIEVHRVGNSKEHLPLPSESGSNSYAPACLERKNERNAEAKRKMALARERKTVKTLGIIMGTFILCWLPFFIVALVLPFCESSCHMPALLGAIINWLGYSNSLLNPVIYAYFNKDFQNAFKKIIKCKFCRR
The test is described as follows: Affinity for 5-HT1A receptor sites, displacement of 3H-8-OH DPAT (Hall et al.). Type of test: binding. As to conditions: for inhibition at 1 µM: 1 μM test compound. On the technique in general: Displacement assays read how much labelled ligand stays bound in the presence of the test substance.
Description: The serotoninergic properties of the compounds of this invention were established by the procedure of Hall et al., J. Neurochem.

Test [2] concerns the target T2, limbic D2 (dopamine) receptor (Rattus norvegicus, UniProt P61169).
T2 construct: from tissue; host or cells: limbic brain tissue
The test is described as follows: Affinity for D2 receptor sites, inhibition of 3H-spiroperidol binding to limbic brain tissue. As to conditions: 1 μM test compound.

For the next test, the target named is T3, M1 muscarinic receptor (Rattus norvegicus, UniProt P08482).
T3 construct: from tissue; host or cells: rat hippocampus
T3 sequence (P08482 1-460): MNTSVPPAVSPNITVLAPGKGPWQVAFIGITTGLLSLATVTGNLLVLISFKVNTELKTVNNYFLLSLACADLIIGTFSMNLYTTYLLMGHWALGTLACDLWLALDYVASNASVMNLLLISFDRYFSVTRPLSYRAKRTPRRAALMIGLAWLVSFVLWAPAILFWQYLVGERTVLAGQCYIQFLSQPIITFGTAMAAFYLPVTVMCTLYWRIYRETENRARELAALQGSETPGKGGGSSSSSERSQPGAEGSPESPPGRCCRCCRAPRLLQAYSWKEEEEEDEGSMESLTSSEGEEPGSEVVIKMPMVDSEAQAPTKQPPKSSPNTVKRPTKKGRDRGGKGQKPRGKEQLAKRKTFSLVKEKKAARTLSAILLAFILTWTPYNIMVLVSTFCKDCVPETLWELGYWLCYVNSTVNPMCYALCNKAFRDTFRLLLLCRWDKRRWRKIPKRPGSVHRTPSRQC
The test is described as follows: M1 muscarinic receptor binding, [3H] pirenzipine, rat hippocampus. How it is done:
The M1 muscarinic receptor binding properties of the compounds of this invention were established as follows:
Homogenized rat hippocampus tissue is suspended in 0.32M aqueous sucrose solution and centrifuged (747×g for 10 minutes at 4° C.) and the supernatent liquid is decanted and recentrifuged (18,677×g for 20 minutes at 4° C.). The resulting pellet is resuspended in the original volume of 0.32M aqueous sucrose. The sample is then diluted 1:2 in 10 mM Na2 HPO4 /KH2 PO4 buffer (pH=7.4). A 100 μl sample of the buffered tissue suspension is incubated at 25° C. for 60 minutes in the dark with 10 μl of test compound or vehicle for control and [^3 H] pirenzipine (0.5 nM, 0.04 μCi) q.s. 1 milliliter with the buffer solution. Atropine sulfate (2 μM) is added to half the samples being processed. Binding is terminated by vacuum filtration onto Whatman GF/B filters which are washed three times with the buffer solution (3 ml/wash, 4° C.). […] Specific ]^3 H] PZ binding is defined as total binding minus binding in the presence of 2 μM atropine sulfate.

In another test the target is T4, M2 muscarinic receptor (Rattus norvegicus, UniProt P10980).
T4 construct: Homogenized rat cerebellum tissue; from tissue; host or cells: rat cerebellum
T4 sequence (P10980 1-466): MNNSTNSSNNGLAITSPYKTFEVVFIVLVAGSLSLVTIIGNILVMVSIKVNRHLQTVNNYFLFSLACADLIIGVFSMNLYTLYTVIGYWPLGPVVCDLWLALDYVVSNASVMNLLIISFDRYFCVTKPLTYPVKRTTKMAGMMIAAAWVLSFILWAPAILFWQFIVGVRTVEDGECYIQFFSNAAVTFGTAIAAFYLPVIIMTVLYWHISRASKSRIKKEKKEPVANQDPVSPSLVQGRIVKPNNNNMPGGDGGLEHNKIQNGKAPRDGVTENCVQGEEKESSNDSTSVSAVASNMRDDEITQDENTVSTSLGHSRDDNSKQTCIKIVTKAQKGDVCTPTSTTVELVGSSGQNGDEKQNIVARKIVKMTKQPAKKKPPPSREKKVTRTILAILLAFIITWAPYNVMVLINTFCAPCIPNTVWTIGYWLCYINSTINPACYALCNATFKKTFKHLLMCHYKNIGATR
The test is described as follows: M2 receptor binding, [3H] quinuclidinyl benzilate, rat cerebellum. As to conditions: [3H] quinuclidinyl benzilate 0.23 nM, 37° C., 60 minutes.

For test [3] the following is noted: background statement, Barone et al., 1986; cited from earlier work.

T2 sequence (P61169 whole entry): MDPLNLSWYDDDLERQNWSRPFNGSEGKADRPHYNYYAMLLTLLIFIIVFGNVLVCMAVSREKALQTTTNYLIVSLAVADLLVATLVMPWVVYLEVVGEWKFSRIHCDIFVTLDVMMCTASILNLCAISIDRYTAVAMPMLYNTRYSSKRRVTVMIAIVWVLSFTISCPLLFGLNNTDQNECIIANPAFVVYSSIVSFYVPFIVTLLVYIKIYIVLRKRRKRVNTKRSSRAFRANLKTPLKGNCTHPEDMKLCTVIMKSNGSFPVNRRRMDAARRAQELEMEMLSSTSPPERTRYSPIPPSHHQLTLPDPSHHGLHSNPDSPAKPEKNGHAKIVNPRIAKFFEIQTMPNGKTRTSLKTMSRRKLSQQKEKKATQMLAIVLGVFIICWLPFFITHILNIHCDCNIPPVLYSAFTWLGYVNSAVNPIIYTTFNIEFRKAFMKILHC

The term inhibition denotes the drop in the measured response relative to a control, in per cent. High values mean a response far below the control, low ones a response near the control. As a reminder, the Ki is the equilibrium dissociation constant of an inhibitor or competing ligand from its target. In the case of `O=C(OCCN1CCN(c2ncccn2)CC1)C12CC3CC(CC1C3)C2` [Example 1, Hexahydro-2,5-methanopentalene-3a[1H]-carboxylic acid 2-[4-(2-pyrimidyl)-1-piperazinyl]ethyl ester], the values for the inhibition at 1 µM in test [1] and in test [2] were 93% and 47%, respectively. Moreover, the Ki in test [1] (calculated from IC50 values) was 0.023 µM.

With `COc1ccccc1N1CCN(CCOC(=O)C23CC4CC(CC2C4)C3)CC1` [Example 2, Hexahydro-2,5-methanopentalene-3a[1H]-carboxylic acid 2-[4-(2-methoxyphenyl)-1-piperazinyl]ethyl ester], the inhibition at 1 µM in test [1] is 95%; in test [2] it was 100%.

The term IC50 denotes the point on the concentration scale where inhibition reaches its midpoint. High values mean lower potency, low ones higher potency. In the case of `O=C(OCCCN1CCN(c2ncccn2)CC1)C12CC3CC(CC1C3)C2` [Example 3, Hexahydro-2,5-methanopentalene-3a[1H]-carboxylic acid 3-[4-(2-pyrimidyl)-1-piperazinyl]propyl ester], the “M2/M1 Ratio” value on M1 muscarinic receptor (IC50 M2 / IC50 M1) turned out to be 81. Moreover, the IC50 was 0.85 µM at M1 muscarinic receptor (rat hippocampus, [3H] pirenzipine 0.5 nM, 25° C., 60 minutes) and 69 µM on M2 muscarinic receptor. Further, the inhibition at 0.1 µM in test [1] (100 nM test compound) is 12%.

Consider `COc1ccccc1N1CCN(CCCOC(=O)C23CC4CC(CC2C4)C3)CC1` [Example 4, Hexahydro-2,5-methanopentalene-3a[1H]carboxylic acid 3-[4-(2-methoxyphenyl)-1-piperazinyl]propyl ester], for which the inhibition at 1 µM in test [1] was determined as 96%; in test [2] it was 100%.

As for `Cc1nc2sccn2c(=O)c1CCN1CCC(=C(c2ccc(F)cc2)c2ccc(F)cc2)CC1` [Ritanserin], the “clinical efficacy as anxiolytic-antidepressant agents” value in test [3] was “demonstrate clinical efficacy as anxiolytic-antidepressant agents”.
